PMC9395446, “First-in-human phase 1/1b study to evaluate sitravatinib in patients with advanced solid tumors” (Investigational New Drugs, 2022)

Experiment: Safety in phase 1/1b study (DLTs, TRAEs, TEAEs; CTCAE v4.03)
Format: in vivo, human
Excerpt: Safety assessments included evaluation of DLTs, AEs, physical examinations, vital sign measurements, electrocardiogram recordings and laboratory tests.
A DLT was defined as a grade ≥ 4 hematologic abnormality lasting ≥ 4 days; grade 3 thrombocytopenia with clinically significant bleeding; febrile neutropenia; clinically significant grade ≥ 3 non-hematologic AEs not related to underlying malignancy; intolerable grade 2 AEs; or toxicity resulting in an inability to deliver 80% of the dose during the first treatment cycle.
The safety population included all patients who received ≥ 1 dose of sitravatinib. […] The PK evaluable population included all patients with sufficient concentration-time data for PK parameter evaluation. The modified intent-to-treat (mITT) population included all phase 1b patients who received ≥ 1 dose of study drug.

Compound: COCCNCc1ccc(-c2cc3nccc(Oc4ccc(NC(=O)C5(C(=O)Nc6ccc(F)cc6)CC5)cc4F)c3s2)nc1 [sitravatinib, Sitravatinib]
- AST increased TRAE, any grade (Overall): 36 (18.7) n (%)
- AST increased TRAE, grade ≥3 (Overall): 2 (1.0) n (%)
- Abdominal pain TEAE, any grade (Overall): 44 (22.8) n (%)
- Abdominal pain TEAE, grade ≥3 (Overall): 6 (3.1) n (%)
- Abdominal pain TRAE, any grade (Overall): 22 (11.4) n (%)
- Abdominal pain TRAE, grade ≥3 (Overall): 0 n (%)
- Anemia TEAE, any grade (Overall): 38 (19.7) n (%)
- Anemia TEAE, grade ≥3 (Overall): 12 (6.2) n (%)
- Any TEAE (Overall): 190 (98.4) n (%)
- Any TRAE (Overall): 174 (90.2) n (%)
- Asthenia TEAE, any grade (Overall): 20 (10.4) n (%)
- Asthenia TEAE, grade ≥3 (Overall): 0 n (%)
- Back pain TEAE, any grade (Overall): 32 (16.6) n (%)
- Back pain TEAE, grade ≥3 (Overall): 3 (1.6) n (%)
- Blood and lymphatic system disorders TEAE, any grade (Overall): 50 (25.9) n (%)
- Blood and lymphatic system disorders TEAE, grade ≥3 (Overall): 20 (10.4) n (%)
- Blood creatinine increased TEAE, any grade (Overall): 21 (10.9) n (%)
- Blood creatinine increased TEAE, grade ≥3 (Overall): 0 n (%)
- Cardiac disorders TEAE, any grade (Overall): 24 (12.4) n (%)
- Cardiac disorders TEAE, grade ≥3 (Overall): 10 (5.2) n (%)
- Constipation TEAE, any grade (Overall): 66 (34.2) n (%)
- Constipation TEAE, grade ≥3 (Overall): 0 n (%)
- Constipation TRAE, any grade (Overall): 22 (11.4) n (%)
- Constipation TRAE, grade ≥3 (Overall): 0 n (%)
- Cough TEAE, any grade (Overall): 34 (17.6) n (%)
- Cough TEAE, grade ≥3 (Overall): 0 n (%)
- Decreased appetite TEAE, any grade (Overall): 74 (38.3) n (%)
- Decreased appetite TEAE, grade ≥3 (Overall): 4 (2.1) n (%)
- Decreased appetite TRAE, any grade (Overall): 51 (26.4) n (%)
- Decreased appetite TRAE, grade ≥3 (Overall): 2 (1.0) n (%)
- Dehydration TEAE, any grade (Overall): 36 (18.7) n (%)
- Dehydration TEAE, grade ≥3 (Overall): 5 (2.6) n (%)
- Diarrhea TEAE, any grade (Overall): 116 (60.1) n (%)
- Diarrhea TEAE, grade ≥3 (Overall): 25 (13.0) n (%)
- Diarrhea TRAE, any grade (Overall): 98 (50.8) n (%)
- Diarrhea TRAE, grade ≥3 (Overall): 20 (10.4) n (%)
- Dizziness TEAE, any grade (Overall): 34 (17.6) n (%)
- Dizziness TEAE, grade ≥3 (Overall): 0 n (%)
- Dizziness TRAE, any grade (Overall): 20 (10.4) n (%)
- Dizziness TRAE, grade ≥3 (Overall): 0 n (%)
- Dry mouth TEAE, any grade (Overall): 28 (14.5) n (%)
- Dry mouth TEAE, grade ≥3 (Overall): 0 n (%)
- Dry mouth TRAE, any grade (Overall): 21 (10.9) n (%)
- Dry mouth TRAE, grade ≥3 (Overall): 0 n (%)
- Dysphonia TEAE, any grade (Overall): 47 (24.4) n (%)
- Dysphonia TEAE, grade ≥3 (Overall): 0 n (%)
- Dysphonia TRAE, any grade (Overall): 27 (14.0) n (%)
- Dysphonia TRAE, grade ≥3 (Overall): 0 n (%)
- Dyspnea TEAE, any grade (Overall): 31 (16.1) n (%)
- Dyspnea TEAE, grade ≥3 (Overall): 6 (3.1) n (%)
- Edema peripheral TEAE, any grade (Overall): 29 (15.0) n (%)
- Edema peripheral TEAE, grade ≥3 (Overall): 1 (0.5) n (%)
- Endocrine disorders TEAE, any grade (Overall): 53 (27.5) n (%)
- Endocrine disorders TEAE, grade ≥3 (Overall): 2 (1.0) n (%)
- Fatigue TEAE, any grade (Overall): 98 (50.8) n (%)
- Fatigue TEAE, grade ≥3 (Overall): 19 (9.8) n (%)
- Fatigue TRAE, any grade (Overall): 83 (43.0) n (%)
- Fatigue TRAE, grade ≥3 (Overall): 14 (7.3) n (%)
- Gastrointestinal disorders TEAE, any grade (Overall): 167 (86.5) n (%)
- Gastrointestinal disorders TEAE, grade ≥3 (Overall): 49 (25.4) n (%)
- General disorders and administration site conditions TEAE, any grade (Overall): 131 (67.9) n (%)
- General disorders and administration site conditions TEAE, grade ≥3 (Overall): 23 (11.9) n (%)
- Headache TEAE, any grade (Overall): 40 (20.7) n (%)
- Headache TEAE, grade ≥3 (Overall): 2 (1.0) n (%)
- Hypertension TEAE, any grade (Overall): 88 (45.6) n (%)
- Hypertension TEAE, grade ≥3 (Overall): 47 (24.4) n (%)
- Hypertension TRAE, any grade (Overall): 78 (40.4) n (%)
- Hypertension TRAE, grade ≥3 (Overall): 40 (20.7) n (%)
- Hypokalemia TEAE, any grade (Overall): 20 (10.4) n (%)
- Hypokalemia TEAE, grade ≥3 (Overall): 3 (1.6) n (%)
- Hypomagnesemia TEAE, any grade (Overall): 24 (12.4) n (%)
- Hypomagnesemia TEAE, grade ≥3 (Overall): 0 n (%)
- Hyponatremia TEAE, any grade (Overall): 25 (13.0) n (%)
- Hyponatremia TEAE, grade ≥3 (Overall): 11 (5.7) n (%)
- Hypophosphatemia TEAE, any grade (Overall): 20 (10.4) n (%)
- Hypophosphatemia TEAE, grade ≥3 (Overall): 11 (5.7) n (%)
- Hypothyroidism TEAE, any grade (Overall): 47 (24.4) n (%)
- Hypothyroidism TEAE, grade ≥3 (Overall): 0 n (%)
- Hypothyroidism TRAE, any grade (Overall): 33 (17.1) n (%)
- Hypothyroidism TRAE, grade ≥3 (Overall): 0 n (%)
- Infections and infestations TEAE, any grade (Overall): 74 (38.3) n (%)
- Infections and infestations TEAE, grade ≥3 (Overall): 24 (12.4) n (%)
- Injury, poisoning, procedural complications TEAE, any grade (Overall): 35 (18.1) n (%)
- Injury, poisoning, procedural complications TEAE, grade ≥3 (Overall): 2 (1.0) n (%)
- Investigations TEAE, any grade (Overall): 116 (60.1) n (%)
- Investigations TEAE, grade ≥3 (Overall): 36 (18.7) n (%)
- Lipase increased TEAE, any grade (Overall): 26 (13.5) n (%)
- Lipase increased TEAE, grade ≥3 (Overall): 14 (7.3) n (%)
- Metabolism and nutrition disorders TEAE, any grade (Overall): 130 (67.4) n (%)
- Metabolism and nutrition disorders TEAE, grade ≥3 (Overall): 41 (21.2) n (%)
- Musculoskeletal and connective tissue disorders TEAE, any grade (Overall): 103 (53.4) n (%)
- Musculoskeletal and connective tissue disorders TEAE, grade ≥3 (Overall): 10 (5.2) n (%)
- Nausea TEAE, any grade (Overall): 81 (42.0) n (%)
- Nausea TEAE, grade ≥3 (Overall): 8 (4.1) n (%)
- Nausea TRAE, any grade (Overall): 58 (30.1) n (%)
- Nausea TRAE, grade ≥3 (Overall): 5 (2.6) n (%)
- Neoplasms benign, malignant, unspecified TEAE, any grade (Overall): 24 (12.4) n (%)
- Neoplasms benign, malignant, unspecified TEAE, grade ≥3 (Overall): 19 (9.8) n (%)
- Nervous system disorders TEAE, any grade (Overall): 92 (47.7) n (%)
- Nervous system disorders TEAE, grade ≥3 (Overall): 8 (4.1) n (%)
- PPE syndrome TEAE, any grade (Overall): 41 (21.2) n (%)
- PPE syndrome TEAE, grade ≥3 (Overall): 11 (5.7) n (%)
- PPE syndrome TRAE, any grade (Overall): 39 (20.2) n (%)
- PPE syndrome TRAE, grade ≥3 (Overall): 11 (5.7) n (%)
- Pain in extremity TEAE, any grade (Overall): 21 (10.9) n (%)
- Pain in extremity TEAE, grade ≥3 (Overall): 2 (1.0) n (%)
- Proteinuria TEAE, any grade (Overall): 26 (13.5) n (%)
- Proteinuria TEAE, grade ≥3 (Overall): 2 (1.0) n (%)
- Proteinuria TRAE, any grade (Overall): 22 (11.4) n (%)
- Proteinuria TRAE, grade ≥3 (Overall): 2 (1.0) n (%)
- Psychiatric disorders TEAE, any grade (Overall): 39 (20.2) n (%)
- Psychiatric disorders TEAE, grade ≥3 (Overall): 4 (2.1) n (%)
- Rash TEAE, any grade (Overall): 26 (13.5) n (%)
- Rash TEAE, grade ≥3 (Overall): 2 (1.0) n (%)
- Rash TRAE, any grade (Overall): 21 (10.9) n (%)
- Rash TRAE, grade ≥3 (Overall): 2 (1.0) n (%)
- Renal and urinary disorders TEAE, any grade (Overall): 51 (26.4) n (%)
- Renal and urinary disorders TEAE, grade ≥3 (Overall): 6 (3.1) n (%)
- Respiratory, thoracic and mediastinal disorders TEAE, any grade (Overall): 121 (62.7) n (%)
- Respiratory, thoracic and mediastinal disorders TEAE, grade ≥3 (Overall): 21 (10.9) n (%)
- Serious TEAE (Overall): 79 (40.9) n (%)
- Serious TRAE (Overall): 30 (15.5) n (%)
- Skin and subcutaneous tissue disorders TEAE, any grade (Overall): 109 (56.5) n (%)
- Skin and subcutaneous tissue disorders TEAE, grade ≥3 (Overall): 15 (7.8) n (%)
- Stomatitis TEAE, any grade (Overall): 29 (15.0) n (%)
- Stomatitis TEAE, grade ≥3 (Overall): 2 (1.0) n (%)
- Stomatitis TRAE, any grade (Overall): 28 (14.5) n (%)
- Stomatitis TRAE, grade ≥3 (Overall): 2 (1.0) n (%)
- TEAE grade ≥3 (Overall): 145 (75.1) n (%)
- TEAE leading to death (Overall): 21 (10.9) n (%)
- TEAE leading to discontinuation (Overall): 41 (21.2) n (%)
- TEAE leading to treatment modification (Overall): 133 (68.9) n (%)
- TRAE grade ≥3 (Overall): 103 (53.4) n (%)
- TRAE leading to death (Overall): 1 (0.5) n (%)
- TRAE leading to discontinuation (Overall): 26 (13.5) n (%)
- TRAE leading to treatment modification (Overall): 120 (62.2) n (%)
- UTI TEAE, any grade (Overall): 23 (11.9) n (%)
- UTI TEAE, grade ≥3 (Overall): 6 (3.1) n (%)
- Vascular disorders TEAE, any grade (Overall): 106 (54.9) n (%)
- Vascular disorders TEAE, grade ≥3 (Overall): 50 (25.9) n (%)
- Vomiting TEAE, any grade (Overall): 61 (31.6) n (%)
- Vomiting TEAE, grade ≥3 (Overall): 11 (5.7) n (%)
- Vomiting TRAE, any grade (Overall): 46 (23.8) n (%)
- Vomiting TRAE, grade ≥3 (Overall): 5 (2.6) n (%)
- Weight decreased TEAE, any grade (Overall): 42 (21.8) n (%)
- Weight decreased TEAE, grade ≥3 (Overall): 3 (1.6) n (%)
- Weight decreased TRAE, any grade (Overall): 27 (14.0) n (%)
- Weight decreased TRAE, grade ≥3 (Overall): 2 (1.0) n (%)
- ALT increased TEAE, any grade (Phase 1): 4 (12.5) n (%)
- ALT increased TEAE, grade ≥3 (Phase 1): 1 (3.1) n (%)
- ALT increased TRAE, any grade (Phase 1): 2 (6.3) n (%)
- ALT increased TRAE, grade ≥3 (Phase 1): 0 n (%)
- AST increased TEAE, any grade (Phase 1): 5 (15.6) n (%)
- AST increased TEAE, grade ≥3 (Phase 1): 1 (3.1) n (%)
- AST increased TRAE, any grade (Phase 1): 2 (6.3) n (%)
- AST increased TRAE, grade ≥3 (Phase 1): 0 n (%)
- Abdominal pain TEAE, any grade (Phase 1): 4 (12.5) n (%)
- Abdominal pain TEAE, grade ≥3 (Phase 1): 1 (3.1) n (%)
